The results in this text go back to a melting point compilation (Tetko et al.).

With `O=C(O)COc1cc(Cl)ccc1Cl`, the melting point – broadly, the temperature, or range, at which the solid turns liquid – is 146 to 148 °C.
The value for `COc1ccc(NC(=O)C(C)Cl)cc1` (stereo not given) was 133 to 135 °C.
The result for `CC1=NN(c2nc(C)cc(C)n2)C(=O)C1` reads 109 to 111 °C; that for `NCC(O)c1cc2ccccc2s1` (stereo not given), 128 to 130 °C; that for `O=C(O)c1ncoc1CCC(F)(F)F`, 139 to 141 °C.
In turn, `Cc1ccc(C(=O)N2CCCC(C(=O)O)C2)cc1` (stereo not given) displayed a melting point of 146 to 148 °C.
In turn, `CC(C)(C)OC(=O)NC1CCC(=O)CC1` displayed a melting point of 113 to 115 °C.
In turn, `Cc1cc(C(=O)NCC(C)C)ccc1N` yielded a melting point of 91 to 93 °C.
`CC(CS(=O)(=O)c1ccc(Br)cc1)C(=O)O` (stereo not given) returned a melting point of 144 to 146 °C.
`CC(=O)c1ccc2c(c1)Nc1ccccc1S2` gave a melting point of 180 to 185 °C.
For the compound `N#Cc1cc2ccccc2nc1Cl`, the melting point is 163 to 165 °C.
In turn, `Nc1cc2c(cc1C(=O)O)OCCO2` registered a melting point of 189 to 191 °C.
For the compound `CCCn1c(=O)[nH]c(=O)c2cc(C(=O)O)cnc21`, the melting point lay within 235 to 237 °C.
The result for `O=C(O)C(S)c1ccccc1` (stereo not given) reads 58 to 60 °C; that for `Cn1ccc(C(=O)O)cc1=O`, 219 to 221 °C.
The compound `O=C(NC1CC1)c1cc([N+](=O)[O-])ccc1Cl` displayed a melting point of 180 to 182 °C.
`COC(=O)C(=O)CC(=O)c1ccccc1Br` returned a melting point of 61 to 63 °C.
The result for `O=C(O)CNC(=O)c1ccc2[nH]nnc2c1` reads 215 to 217 °C; that for `Cc1cc(Br)ccc1CC(=O)O`, 111 to 113 °C; that for `O=C(O)c1cnc2c(OC(F)(F)F)cccc2c1O`, 259 to 261 °C.
The result for `O=C(CCl)Nc1ccc(Cl)c(Cl)c1` reads 103 to 105 °C; that for `O=C(O)c1cccc(NC(=O)c2ccc(Br)o2)c1`, 229 to 231 °C; that for `CC(NC(=O)c1[nH]nc2ccccc12)C(=O)O` (stereo not given), 208 to 210 °C.
In turn, `O=C(O)c1sc2cccc([N+](=O)[O-])c2c1Cl` returned a melting point of 219 to 221 °C.
On to `O=C(NC(Cc1ccc(O)cc1)C(=O)O)c1cnccn1` (stereo not given), for which the melting point is 234 to 236 °C.
The value for `COc1ccc2c(-c3ccccc3)cc(NN)nc2c1` was 119 to 121 °C; that for `CC(NC(=O)c1ccc(Br)cc1)C(=O)O` (stereo not given) was 138 to 140 °C.
With `CC(C)C(O)c1nccn1C` (stereo not given), the melting point fell in the range of 80 to 82 °C.
`O=C(O)c1ccc(N2C(=O)C=CC2=O)cc1` had a melting point of 229 to 231 °C.
`COc1ccccc1NC(=O)CC(N)=S` gave a melting point of 146 to 148 °C.
For the compound `Cc1cc(CS(=O)(=O)Cl)no1`, the melting point is 43 to 45 °C.
The value for `FC(F)(F)c1nnc2ccc(Cl)nn12` was 69 to 71 °C; that for `NC(=O)N1CCCC1CO` (stereo not given) was 94 to 96 °C.
The value for `CC(C)CC(NS(C)(=O)=O)C(=O)O` (stereo not given) was 67 to 69 °C.
The value for `CCC(=O)c1c(C)nn(C)c1C` was 50 to 52 °C; that for `Cc1oc2nc(CCl)nc(N)c2c1C` was 179 to 181 °C.
In the case of `Nc1ncc(-c2ccc(F)cc2)s1`, the melting point lay in the range of 209 to 211 °C.
In the case of `CN(C)S(=O)(=O)c1ccc(NCCO)c(C(=O)O)c1`, the melting point lay in the range of 176 to 178 °C.
The compound `COC1CC(C(=O)O)N(C(=O)OC(C)(C)C)C1` (stereo not given) showed a melting point of 79 to 81 °C.
`CN1C(=O)CC(C(=O)O)C1c1ccc(C(F)(F)F)cc1` (stereo not given) registered a melting point of 145 to 147 °C.
The result for `Cc1ccc2c(c1)C(=NO)C(=O)N2` reads 239 to 241 °C; that for `CN(C)Cc1c(O)ccc2ccccc12`, 73 to 75 °C.
The value for `Cc1cc(NS(=O)(=O)c2cccc(C(=O)O)c2)no1` was 195 to 197 °C; that for `CC(C)(C)C1CCc2c(sc3nc(S)nc(S)c23)C1` (stereo not given) was 301 to 303 °C; that for `CCOc1cc(Br)c(C=O)cc1OCC` was 71 to 72 °C.
As to `O=C1NC2(CCCC2)C(=O)N1Cc1ccc(Cl)nc1`, the melting point was in the range of 169 to 171 °C.
With `COCc1ccsc1C(=O)O`, the melting point was in the range of 119 to 121 °C.
`Cc1ccc(C(=O)Nc2ccccc2N)cc1` showed a melting point of 154 to 156 °C.
The compound `COc1cc(CCC(=O)O)ccc1Cl` had a melting point of 132 to 134 °C.
For `O=c1n(CCCO)nc2ccccn12`, the melting point lay in the range of 81 to 83 °C.
As to `Fc1cccc(-c2nnc(CCl)o2)c1`, the melting point was 65 to 67 °C.
The value for `Nc1nccn2ccnc12` was 212 to 214 °C; that for `Cc1cc(C(F)(F)F)c(C#N)c(SCC(=O)O)n1` was 132 to 134 °C.
`CS(=O)(=O)NCCC1CCCCN1` (stereo not given): the melting point was 105 to 107 °C.
Turning to `CS(=O)(=O)c1ccc(-c2nc(CCl)co2)cc1`, the melting point lay in the range of 129 to 131 °C.
The compound `Nc1nc(N)nc(C2CCCC2)n1` showed a melting point of 202 to 204 °C.
`N#Cc1ccccc1OCc1ccc(C(=O)O)o1` gave a melting point of 145 to 147 °C.
`Cc1nn(-c2ccccc2Cl)c(C(F)F)c1C(=O)O` returned a melting point of 204 to 206 °C.
`Cc1cc(C(=O)CCl)c(C)n1-c1ccc(C(F)(F)F)cc1` came in with a melting point of 115 to 117 °C.
The value for `O=S(=O)(Cl)c1cc2c(cc1Cl)OCCCO2` was 92 to 94 °C; that for `NNC(=O)C1COc2ccccc2O1` (stereo not given) was 111 to 113 °C; that for `Nc1ccc(Cl)c(C(=O)NCc2cccs2)c1` was 69 to 71 °C.
As to `O=C1CCNc2ncccc2N1`, the melting point lay in the range of 263 to 265 °C.
On to `NS(=O)(=O)Cc1ccccc1Br`, for which the melting point is 118 to 120 °C.
Turning to `CC(C)NS(=O)(=O)c1ccc(Cl)c(C(=O)O)c1`, the melting point was 147 to 149 °C.
As for `O=C(O)c1ccc2c(c1)C(=O)N(c1ccc(F)cc1)C2=O`, the melting point was in the range of 295 to 297 °C.
The result for `O=C1CCCC(C(=O)O)N1` (stereo not given) reads 94 to 96 °C; that for `COc1ccc(Br)c(S(=O)(=O)Cl)c1`, 63 to 65 °C.
Regarding `Cn1cnc(-c2ccc(F)cc2)c1N`, the melting point was in the range of 148 to 150 °C.
With `Cc1nc(-c2ccc(NC(=O)OCC(F)(F)F)cc2)cc(=O)[nH]1`, the melting point fell in the range of 246 to 248 °C.
The result for `Nc1[nH]ncc1-c1nc2cc(Cl)ccc2s1` reads 274 to 276 °C; that for `NCc1ccc(NC(=O)c2ccc(F)cc2)cc1`, 135 to 137 °C; that for `O=C(NC1CC1)OCC(F)(F)F`, 53 to 55 °C.
Take `COc1ccc(-n2c(CCl)nc3ccccc32)cc1`: the melting point is 121 to 125 °C.
`CC1CCN(c2ccc(NC(=O)CCC(=O)O)cc2)CC1` registered a melting point of 174 to 176 °C.
In the case of `O=Cc1c[nH]nc1-c1ccc2c(c1)OCO2`, the melting point was 188 to 190 °C.
Consider `O=C(O)c1cnc(Cc2ccccc2)s1`, for which the melting point lay within 199 to 201 °C.
As for `O=C(O)c1cnn2cccnc12`, the melting point is 203 to 205 °C.
Take `Cc1nc2n(n1)CC(N)CC2` (stereo not given): the melting point lay in the range of 60 to 62 °C.
The value for `CCOc1cc(/C=C/C(=O)O)ccc1OCc1cccnc1` was 201 to 203 °C.
In turn, `O=C(Cc1ccccc1F)N1CCNCC1` displayed a melting point of 77 to 79 °C.
The value for `CCN(CC)c1ccc(S(=O)(=O)N2CCOCC2)cc1NC(=O)CCl` was 99 to 101 °C; that for `O=C(O)c1cc(Br)c(S(=O)(=O)Cl)s1` was 129 to 131 °C.
The value for `CCS(=O)c1ccccc1C(=O)O` (stereo not given) was 128 to 130 °C.
As to `Nc1ccnn1Cc1c(Cl)cccc1Cl`, the melting point was in the range of 127 to 129 °C.
